This passage reports ED50 results from ChEMBL document CHEMBL1142629, “New lipids from the tunicate Cystodytes cf. dellechiajei, as PLA2 inhibitors” (J Nat Prod, 2000).

Converted amounts (≈) assume the structure as drawn.

The assay has as its system Crotalus adamanteus. The experiment in a line: Inhibition of Crotalus adamanteus venom PLA2.

`CCCCCCCCCCCCCCCCCCCC[C@@H](O)C(=O)N[C@@H](CO)[C@H](O)[C@H](O)CCCCCCCCCC(C)C` displayed an ED50 of 100 µg/mL (≈ 159 µM).
